Experimental data published in article PMC8400033, “A Multicomponent Protocol for the Synthesis of Highly Functionalized γ-Lactam Derivatives and Their Applications as Antiproliferative Agents” (Pharmaceuticals, 2021).
Read-outs that look alike come from different tables or passages of the source.

Experiments:
[1] = system: A549 (carcinomic human alveolar basal epithelial cell); test: CCK-8 antiproliferative assay, A549 cell line; assay type: cell-based
Procedure: (§1) In vitro cytotoxicity of the γ-lactam derivatives was evaluated by testing their antiproliferative activities against several human cancer cell lines. Cell counting kit (CCK-8) assay was used for the evaluation of growth inhibition.
(§2) All stock solutions of the investigated compounds were prepared by dissolving the powdered materials in appropriate amounts of DMSO. The final concentration of DMSO never exceeded 5% (v/v) in reactions. The stock solution was stored at 5 °C until it was used.
(§3) All were supplemented with 10% of fetal bovine serum (FBS) (Sigma-Aldrich, Madrid, Spain) and with 1% of NORMOCIN solution (Thermo Fisher, Waltham, Massachusetts, MA, USA). […] For cytotoxicity experiments, A549 cells were seeded in 96-well plates at a density of 2.5–3 × 10^3 cells per well and incubated overnight to achieve 70% of confluence at the time of exposition to the cytotoxic compound.
(§4) Both were supplemented with 10% of fetal bovine serum (FBS) (Sigma-Aldrich, Spain) and with 1% of NORMOCIN solution (Thermo Fisher, Waltham, Massachusetts, MA, USA). […] For cytotoxicity experiments, A549 cells were seeded in 96-well plates at a density of 2.5–3 × 10^3 cells per well and incubated overnight to achieve 70% of confluence at the time of exposition to the cytotoxic compound.

[2] = system: MRC5 non-malignant lung fibroblasts; test: CCK-8 assay on non-malignant cells for selective toxicity; assay type: cell-based; conditions: Homo sapiens
Procedure: as §1, §2, §3, §4

[3] = system: SKOV3 (human ovarian carcinoma); test: CCK-8 antiproliferative assay, SKOV3 cell line
Procedure: as §1, §2, §3

[4] = system: RKO (human colon epithelial carcinoma); test: CCK-8 antiproliferative assay, RKO cell line; assay type: cell-based
Procedure: as §1, §2, §3

[5] = Homo sapiens, A549, read-out: IC50 of individual enantiomers of 4v
[6] = Homo sapiens, A549, A549 cell line, CCK-8, read-out: IC50 A549
[7] = MRC5 non-malignant lung fibroblasts, CCK-8, read-out: IC50 MRC5
[8] = Homo sapiens, SK-OV-3, read-out: IC50 SKOV3, SKOV3 cell line, CCK-8
[9] = Homo sapiens, A549, read-out: IC50 A549
[10] = Homo sapiens, SK-OV-3, read-out: IC50 SKOV3

CCOP(=O)(C[C@H]1C=C(Nc2ccc(C)cc2)C(=O)N1c1ccc(C)cc1)OCC [(R)-4v]
IC50 [1, 5]: 9.23 ± 1.68 µM

Cc1ccc(NC2=CC(c3cccs3)N(c3ccc(C)cc3)C2=O)cc1 (stereo not shown) [4l]
IC50 [1, 6]: 12.7 ± 1.07 µM
IC50 [2, 7]: > 50 µM
IC50 [3, 8]: 12.7 ± 1.83 µM

Cc1ccc(NC2=CC(CP(=O)(c3ccccc3)c3ccccc3)N(c3ccc(C)cc3)C2=O)cc1 (stereo not shown) [4w]
IC50 [1, 6]: 5.67 ± 0.9 µM
IC50 [4]: 28.1 ± 1.47 µM
IC50 [2, 7]: 30.1 ± 0.49 µM
IC50 [3, 8]: 10.8 ± 0.88 µM

Cc1ccc(NC2=CC(c3ccco3)N(c3ccc(C)cc3)C2=O)cc1 (stereo not shown) [4k]
IC50 [1, 6]: 11.5 ± 0.85 µM
IC50 [2, 7]: > 50 µM
IC50 [3, 8]: > 50 µM

CCOP(=O)(C[C@H]1C[C@@H](Nc2ccc(C)cc2)C(=O)N1c1ccc(C)cc1)OCC [18b]
IC50 [1, 9]: 4.25 ± 0.65 µM
IC50 [4]: > 50 µM
IC50 ([2]; MRC5, read-out: IC50 MRC5): > 50 µM
IC50 [3, 10]: > 50 µM

Cc1ccc(NC2=CC(c3ccc(F)cc3)N(c3ccc(C)cc3)C2=O)cc1 (stereo not shown) [4f]
IC50 [1, 6]: 10.7 ± 1.21 µM
IC50 [2, 7]: > 50 µM
IC50 [3, 8]: 23.5 ± 0.75 µM

O=C1C(Nc2ccc(Br)cc2)=CC(c2ccc(C(F)(F)F)cc2)N1c1ccc(Br)cc1 (stereo not shown) [8b]
IC50 [1, 6]: > 50 µM
IC50 [4]: > 50 µM
IC50 [3, 8]: > 50 µM

CCOP(=O)(C[C@@H]1C=C(Nc2ccc(C)cc2)C(=O)N1c1ccc(C)cc1)OCC [(S)-4v]
IC50 [1, 5]: 10.5 ± 0.8 µM

Cc1ccc(NC2=CC(c3ccccc3C)N(c3ccc(C)cc3)C2=O)cc1 (stereo not shown) [4e]
IC50 [1, 6]: 41.3 ± 1.29 µM
IC50 [2, 7]: > 50 µM
IC50 [3, 8]: > 50 µM

Cc1ccc(/N=C(/C=C/C=C/c2ccccc2)C(=O)Nc2ccc(C)cc2)cc1 [20a, (2Z, 3E, 5E)-6-Phenyl-N-(p-tolyl)-2-(p-tolylimino)hexa-3,5-dienamide]
IC50 [1, 6]: 6.9 ± 0.73 µM
IC50 [2, 7]: > 50 µM
IC50 [3, 8]: > 50 µM

CCOP(=O)(CC1C=C(Nc2ccc(OC)cc2)C(=O)N1c1ccc(OC)cc1)OCC (stereo not shown) [6c]
IC50 [1, 9]: 6.84 ± 0.22 µM
IC50 ([2]; MRC5, read-out: IC50 MRC5): > 50 µM
Cytotoxic activity against SKOV3 cell line, in words [3]: did not show any cytotoxicity
IC50 [3, 10]: > 50 µM

CCOP(=O)(OCC)C1=C(Nc2ccc(C)cc2)C(=O)N(c2ccc(C)cc2)C1 [5d]
IC50 [1, 9]: > 50 µM
IC50 [4]: > 50 µM
IC50 ([2]; MRC5, read-out: IC50 MRC5): > 50 µM
IC50 [3, 10]: > 50 µM

Cc1ccc(NC2=CC(c3cccc(C)c3)N(c3ccc(C)cc3)C2=O)cc1 (stereo not shown) [4d]
IC50 [1, 6]: 31.2 ± 1.04 µM
IC50 [2, 7]: > 50 µM
IC50 [3, 8]: > 50 µM

O=C1C(Nc2ccc(Br)cc2)=CC(c2ccc([N+](=O)[O-])cc2)N1c1ccc(Br)cc1 (stereo not shown) [8a]
IC50 [1, 6]: > 50 µM
IC50 [3, 8]: > 50 µM

COc1ccc(NC2=CC(c3ccc([N+](=O)[O-])cc3)N(c3ccc(OC)cc3)C2=O)cc1 (stereo not shown) [6b]
IC50 [1, 6]: 31.5 ± 1.37 µM
IC50 [4]: > 50 µM
IC50 [2, 7]: > 50 µM
IC50 [3, 8]: > 50 µM

O=C1C(Nc2ccc(Cl)cc2)=CC(c2ccc([N+](=O)[O-])cc2)N1c1ccc(Cl)cc1 (stereo not shown) [compound 7]
IC50 [1, 6]: 17.2 ± 2.1 µM
IC50 [2, 7]: > 50 µM
IC50 [3, 8]: > 50 µM

COc1cccc2c1C(=O)c1c(O)c3c(c(O)c1C2=O)C[C@@](O)(C(=O)CO)C[C@@H]3O[C@H]1C[C@H](N)[C@H](O)[C@H](C)O1 [Doxorubicin, reference compound]
IC50 [2, 7]: > 50 µM

O=C1C(Nc2cccc(C(F)(F)F)c2)=CC(c2ccc([N+](=O)[O-])cc2)N1c1cccc(C(F)(F)F)c1 (stereo not shown) [11b]
IC50 [1, 6]: 2 ± 0.78 µM
IC50 [2, 7]: 44.6 ± 1.16 µM
IC50 [3, 8]: 8.5 ± 0.54 µM

Cc1ccc(N[C@@H]2C[C@H](C(F)(F)F)N(c3ccc(C)cc3)C2=O)cc1 [18a]
IC50 [1, 6]: 3.27 ± 0.65 µM
IC50 [2, 7]: > 50 µM
IC50 [3, 8]: > 50 µM

CCOC(=O)[C@]1(C)C[C@@H](Nc2ccc(C)cc2)C(=O)N1c1ccc(C)cc1 (relative stereo) [compound 17, Ethyl (2S*, 4R*)-2-methyl-5-oxo-1-(p-tolyl)-4-(p-tolylamino)-pyrrolidine-2-carboxylate]
IC50 [1, 6]: > 50 µM
melting point: 173 to 174 °C
IC50 [3, 8]: > 50 µM

Cc1ccc(NC2=CC(c3c(F)c(F)c(F)c(F)c3F)N(c3ccc(C)cc3)C2=O)cc1 (stereo not shown) [4t]
IC50 [1, 6]: 33.5 ± 1.68 µM
IC50 [4]: > 50 µM
IC50 [2, 7]: > 50 µM
IC50 [3, 8]: > 50 µM

COc1ccc(NC2=CC(c3ccccc3)N(c3ccc(OC)cc3)C2=O)cc1 (stereo not shown) [6a]
IC50 [1, 6]: 12 ± 1.96 µM
IC50 [2, 7]: > 50 µM
IC50 [3, 8]: 6.84 ± 0.59 µM

O=C1C(Nc2ccc3ccccc3n2)=CC(c2ccc([N+](=O)[O-])cc2)N1c1ccc2ccccc2n1 (stereo not shown) [12a]
IC50 [1, 6]: 9.25 ± 1.49 µM
IC50 [2, 7]: > 50 µM
Cytotoxic activity against SKOV3 cell line, in words [3]: No activity
IC50 [3, 8]: > 50 µM

Cc1ccc(NC2=CC(c3cccc([N+](=O)[O-])c3)N(c3ccc(C)cc3)C2=O)cc1 (stereo not shown) [4h]
IC50 [1, 6]: 7.33 ± 0.57 µM
IC50 [2, 7]: 27.2 ± 1.24 µM
IC50 [3, 8]: 27.7 ± 1.32 µM

CCOP(=O)(CC1=C(C)C(C)(Nc2ccc(C)cc2)C(=O)N1c1ccc(C)cc1)OCC (stereo not shown) [compound 19, Diethyl ((3,4-dimethyl-5-oxo-1-(p-tolyl)-4-(p-tolylamino)-4,5-dihydro-1H-pyrrol-2-yl)methyl)phosphonate]
IC50 [1, 9]: 3.65 ± 0.25 µM
IC50 [4]: > 50 µM
IC50 ([2]; MRC5, read-out: IC50 MRC5): > 50 µM
IC50 [3, 10]: > 50 µM

Cc1ccc(\N=C(/C=C/C=C/c2ccc(C(F)(F)F)cc2)C(=O)Nc2ccc(C)cc2)cc1 [20b]
IC50 [1, 6]: 9.77 ± 0.17 µM
IC50 [2, 7]: > 50 µM
IC50 [3, 8]: > 50 µM

Cc1ccc(NC2=CC(C(C)C)N(c3ccc(C)cc3)C2=O)cc1 (stereo not shown) [4o]
IC50 [1, 6]: 11.1 ± 0.71 µM
IC50 [2, 7]: > 50 µM
IC50 [3, 8]: > 50 µM

CC1=C(Nc2ccc(C)cc2)C(=O)N(c2ccc(C)cc2)C1c1ccc([N+](=O)[O-])cc1 (stereo not shown) [5a]
IC50 [1, 6]: 2.05 ± 0.23 µM
IC50 [2, 7]: > 50 µM
IC50 [3, 8]: > 50 µM

Cc1ccc(NC2=CC(c3ccc4ccccc4c3)N(c3ccc(C)cc3)C2=O)cc1 (stereo not shown) [4m]
IC50 [1, 6]: 12.1 ± 0.74 µM
IC50 [2, 7]: 21.3 ± 0.74 µM
IC50 [3, 8]: 30.5 ± 1.34 µM

Cc1ccc(NC2=CC(C)N(c3ccc(C)cc3)C2=O)cc1 (stereo not shown) [4n]
IC50 [1, 6]: 15.7 ± 0.92 µM
IC50 [2, 7]: > 50 µM
IC50 [3, 8]: 29.2 ± 1 µM

Cc1ccc(NC2=CC(c3ccc([N+](=O)[O-])cc3)N(c3ccc(C)cc3)C2=O)cc1 (stereo not shown) [4g]
IC50 [1, 6]: 17.1 ± 1.58 µM
IC50 [4]: 23.8 ± 2.53 µM
IC50 [2, 7]: 26.6 ± 2.89 µM
IC50 [3, 8]: 22.9 ± 0.63 µM

CCOP(=O)(CC1C=C(Nc2ccc(C)cc2)C(=O)N1c1ccc(C)cc1)OCC (stereo not shown) [4v]
IC50 [1, 9]: 11.3 ± 1.8 µM
IC50 [4]: > 50 µM
IC50 ([2]; MRC5, read-out: IC50 MRC5): > 50 µM
IC50 [3, 10]: > 50 µM

O=C1C(Nc2ccccc2F)=CC(c2ccc([N+](=O)[O-])cc2)N1c1ccccc1F (stereo not shown) [compound 10]
IC50 [1, 6]: 4.36 ± 0.51 µM
IC50 [2, 7]: > 50 µM
IC50 [3, 8]: 5.55 ± 0.62 µM

Cc1ccc(NC2=C(Cc3ccccc3)C(c3ccc([N+](=O)[O-])cc3)N(c3ccc(C)cc3)C2=O)cc1 (stereo not shown) [5b]
IC50 [1, 6]: 9.92 ± 1.15 µM
IC50 [2, 7]: 47.6 ± 1.67 µM
IC50 [3, 8]: > 50 µM

Cc1ccc(NC2=CC(/C=C/c3ccccc3)N(c3ccc(C)cc3)C2=O)cc1 (stereo not shown) [4r]
IC50 ([1]; A549 cell line, CCK-8, read-out: IC50 A549): 10.3 ± 0.8 µM
IC50 [1, 6]: ~10 µM
IC50 [2, 7]: 18.2 ± 0.81 µM
IC50 [3, 8]: ~10 µM
IC50 ([3]; read-out: IC50 SKOV3, SKOV3 cell line, CCK-8): 9.59 ± 0.82 µM

Cc1ccc(NC2=CC(c3ccc4ccn(C)c4c3)N(c3ccc(C)cc3)C2=O)cc1 (stereo not shown) [4j]
IC50 [1, 6]: 19.3 ± 0.7 µM
IC50 [2, 7]: > 50 µM
IC50 [3, 8]: > 50 µM

Cc1ccc(NC2=CC(C(F)(F)F)N(c3ccc(C)cc3)C2=O)cc1 (stereo not shown) [4u]
IC50 [1, 6]: > 50 µM
IC50 [4]: > 50 µM
IC50 [3, 8]: > 50 µM

COC(=O)C1=C(Nc2ccc(C)cc2)C(=O)N(c2ccc(C)cc2)C1c1ccccc1 (stereo not shown) [5c]
IC50 [2, 7]: > 50 µM
melting point: 179 to 181 °C

O=C1C(Nc2cccc(Cl)c2)=CC(c2ccc([N+](=O)[O-])cc2)N1c1cccc(Cl)c1 (stereo not shown) [compound 9]
IC50 [1, 6]: 8.37 ± 1.27 µM
IC50 [2, 7]: 23.8 ± 1.75 µM
IC50 [3, 8]: 16.1 ± 0.81 µM

Cc1ccc(NC2=CC(c3ccc(C(F)(F)F)cc3)N(c3ccc(C)cc3)C2=O)cc1 (stereo not shown) [4i]
IC50 [1, 6]: > 50 µM
IC50 [4]: > 50 µM
IC50 [3, 8]: > 50 µM
